In patent publication US10273224B2, “Substituted pyrimidine compounds, compositions and medicinal applications thereof” (JUBILANT BIOSYS LIMITED, priority 2013, dated 2019):

biological target: T1, EGFR (L858R & T790M) (Homo sapiens, UniProt P00533, L858R/T790M); experiment: EGFR (L858R & T790M) inhibition assay, HTRF method; conditions: biochemical HTRF; EGFR (T790M/L858R) 2.5 nM, ATP 5 μM, 60 min room temperature
T1 construct: GST; purchased Proqinase
Method: Example 25: Biological Activity: EGFR T790M Assay Protocol
The objective of the experiment is to find the IC50 for the compounds using HTRF method.
Reagents for Enzyme Assay:
1. Enzyme Assay Buffer: 60 mM HEPES (pH 7.4), 50 mM NaCl, 20 mM MgCl2, 5 mM MnCl2, filter using 0.2 µm pore size, store at 4° C.
Supplements (add fresh to the enzyme buffer): Make 1M DTT stock, 5% BSA stock and 0.1M Na3OV4 stored at 4° C. Enzyme assay buffer 50 ml, 1 M DTT 100 μl, 5% BSA 500 μl, 0.1M Na3OV4 50 μl.
2. GST-hEGFR (L858R), active: EGFR (T790M/L858R), active (Proqinase), 3.6 μM stock; 2.5 nM in final assay.
3. Gastrin Precusor-Biotinylated: Gastrin precursor (Tyr87) biotinylated peptide (EEAY*GWM), Cell Signaling Tech 1310, Lot-7, Want final 0.5 μM in assay
4. ATP: 10 mM stock in 100 μl Enzyme assay buffer pH 7.4 prepared freshly, want 5 μM in final assay.
5. Test compounds: Dissolve powders in 100% DMSO to a final stock concentration of 10 mM (volume in μL to add for 10 mM=mg powder×10^5/MW). Final comp concentration in the assay plate is starting at 10 μM.
1. HTRF buffer: 50 mM Tris-HCl, pH-7.5, 100 mM NaCl, 0.1% BSA, 0.05% Tween20, 0.5 mM EDTA, filter using 0.2 µm pore size, store at 4° C.
Phycolink® Streptavidin-Allophycocyanin (SA-APC) Prozyme, Cat. #PJ25S, Lot #896 085, 2.06 mg/mL, APC concentration is 11.6 μM, streptavidin concentration is 15.5 μM. Want 12 nM final in assay (based on streptavidin concentration).
2. Europium-W1024-PT-66 Anti Phospho Tyrosine Antibody: Perkin Elmer (AD0068), monoclonal IgG1 that recognizes phospho tyrosine peptide 100 μg/ml stock. Want 0.1 nM final in assay.
• 1. Make the compound dilution by TECAN as per the above scheme. • 2. Add 16 μl of diluted compound to the assay plate by using TECAN • 3. Add 10 μl of enzyme mix to each well except mins. • 4. Add 20 μl of substrate and ATP mix into each well of the assay plate manually. • 5. Incubate the plate at room temperature for 60 min with shaking. • 6. Meanwhile prepare the HTRF mix and add 75 μl to the HTRF plate. • 7. When the incubation is over, transfer 10 μl of the reaction mixture to the HTRF assay plate and incubate for 30 min at room temperature with shaking. • 8. Take the reading in Pherastar (ext 337 nm, em 665 & 620 nm). • 9. Analyze the results using Graphpad prism after calculation the z factor, signal window and % inhibition to get the IC50.
Compounds having IC50<10 nM are designated as “A”; 10-100 nM are designated as “B”; and >100 nM as “C”.

T1 sequence (P00533 25-1210 T790M/L858R): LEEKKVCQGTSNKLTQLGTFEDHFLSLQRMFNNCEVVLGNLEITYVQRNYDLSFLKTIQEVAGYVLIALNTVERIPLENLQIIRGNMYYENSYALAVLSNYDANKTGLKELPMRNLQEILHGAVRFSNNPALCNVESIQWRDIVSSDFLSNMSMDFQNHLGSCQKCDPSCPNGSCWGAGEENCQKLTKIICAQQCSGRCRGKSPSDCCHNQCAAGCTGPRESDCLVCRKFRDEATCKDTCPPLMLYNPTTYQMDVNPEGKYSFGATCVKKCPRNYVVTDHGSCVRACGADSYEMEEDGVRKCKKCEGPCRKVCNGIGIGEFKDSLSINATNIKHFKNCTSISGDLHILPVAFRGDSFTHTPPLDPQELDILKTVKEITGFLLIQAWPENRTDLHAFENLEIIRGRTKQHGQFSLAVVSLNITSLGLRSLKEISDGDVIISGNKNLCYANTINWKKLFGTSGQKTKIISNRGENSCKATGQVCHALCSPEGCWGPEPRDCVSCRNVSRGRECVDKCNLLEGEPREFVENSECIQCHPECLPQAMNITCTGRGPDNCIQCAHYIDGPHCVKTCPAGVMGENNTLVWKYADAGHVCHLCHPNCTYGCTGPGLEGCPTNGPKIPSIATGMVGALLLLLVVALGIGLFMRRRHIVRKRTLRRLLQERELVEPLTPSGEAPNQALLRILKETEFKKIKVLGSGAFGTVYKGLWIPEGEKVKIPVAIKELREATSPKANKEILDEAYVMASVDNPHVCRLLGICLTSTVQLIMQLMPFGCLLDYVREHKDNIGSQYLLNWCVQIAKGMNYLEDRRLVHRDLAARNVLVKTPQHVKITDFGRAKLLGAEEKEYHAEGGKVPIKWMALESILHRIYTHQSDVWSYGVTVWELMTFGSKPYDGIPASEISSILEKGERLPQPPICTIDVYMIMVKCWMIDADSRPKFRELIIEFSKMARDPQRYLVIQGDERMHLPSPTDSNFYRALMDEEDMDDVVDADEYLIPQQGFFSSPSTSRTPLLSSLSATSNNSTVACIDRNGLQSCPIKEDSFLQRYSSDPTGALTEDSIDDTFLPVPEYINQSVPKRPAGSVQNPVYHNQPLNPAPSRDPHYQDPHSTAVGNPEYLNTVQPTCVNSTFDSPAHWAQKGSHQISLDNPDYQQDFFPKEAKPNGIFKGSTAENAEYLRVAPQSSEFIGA

Structure (SMILES) | IC50
CC(Nc1nc(Nc2cnn(C)c2)ncc1Cl)c1cccc(NC(=O)/C=C/CN(C)C)c1 (stereo not shown) [Compound I-57, (E)-N-(3-(1-((5-chloro-2-((1-methyl-1H-pyrazol-4-yl)amino)pyrimidin-4-yl)amino)ethyl)phenyl)-4-(dimethylamino)but-2-enamide] | > 100 nM
C=CC(=O)Nc1cc(Cl)cc(Nc2nc(Nc3cnn(C)c3)ncc2Cl)c1 [Compound I-35, N-(3-chloro-5-((5-chloro-2-((1-methyl-1H-pyrazol-4-yl)amino)pyrimidin-4-yl)amino)phenyl)acrylamide] | < 10 nM
CN1CCC(n2cc(Nc3ncc(Cl)c(Nc4cccc(NC(=O)C=C5CCOCC5)c4)n3)cn2)CC1 [Compound I-26, N-(3-((5-chloro-2-((1-(1-methylpiperidin-4-yl)-1H-pyrazol-4-yl)amino)pyrimidin-4-yl)amino)phenyl)-2-(dihydro-2H-pyran-4(3H)-ylidene)acetamide] | > 100 nM
C=CC(=O)Nc1cccc(Nc2nc(Nc3nc(C)cs3)ncc2Cl)c1 [Compound I-124, N-(3-((5-chloro-2-((4-methylthiazol-2-yl)amino)pyrimidin-4-yl)amino)phenyl)acrylamide] | 10 to 100 nM
CN(C)C/C=C/C(=O)N1CCCC(Nc2nc(Nc3cnn(C)c3)ncc2Cl)C1 (single isomer, unassigned) [II-4 (Enantiomer 2), (E)-1-(3-((5-chloro-2-((1-methyl-1H-pyrazol-4-yl)amino)pyrimidin-4-yl)amino)piperidin-1-yl)-4-(dimethylamino)but-2-en-1-one] | > 100 nM
C=CC(=O)NC1CCC(Nc2nc(Nc3cnn(C)c3)ncc2Cl)CC1 (stereo not shown) [Compound I-94, N-(4-((5-chloro-2-((1-methyl-1H-pyrazol-4-yl)amino)pyrimidin-4-yl)amino)cyclohexyl)acrylamide] | > 100 nM
C=CC(=O)Nc1cccc(Nc2nc(Nc3cnn(C4CCOCC4)c3)ncc2Cl)c1 [Compound I-45, N-(3-((5-chloro-2-((1-(tetrahydro-2H-pyran-4-yl)-1H-pyrazol-4-yl)amino)pyrimidin-4-yl)amino)phenyl)acrylamide] | 10 to 100 nM
C=CC(=O)Nc1cccc(Nc2nc(Nc3nnc(N4CCN(C)CC4)s3)ncc2Cl)c1 [Compound I-41, N-(3-((5-chloro-2-((5-(4-methylpiperazin-1-yl)-1,3,4-thiadiazol-2-yl)amino)pyrimidin-4-yl)amino)phenyl)acrylamide] | 10 to 100 nM
C=CC(=O)NC1CCCC(Nc2nc(Nc3cnn(C)c3)ncc2Cl)C1 (stereo not shown) [Compound I-126, N-(3-((5-chloro-2-((1-methyl-1H-pyrazol-4-yl)amino)pyrimidin-4-yl)amino)cyclohexyl)acrylamide 4-methylbenzenesulfonate] | > 100 nM
C=CC(=O)Nc1cccc(Nc2nc(Nc3ncc(C)s3)ncc2Cl)c1 [Compound I-123, N-(3-((5-chloro-2-((5-methylthiazol-2-yl)amino)pyrimidin-4-yl)amino)phenyl)acrylamide] | 10 to 100 nM
C=CC(=O)Nc1cccc(Nc2nc(Nc3cnn(C)c3C)ncc2Cl)c1 [Compound I-23, N-(3-((5-chloro-2-((1,5-dimethyl-1H-pyrazol-4-yl)amino)pyrimidin-4-yl)amino)phenyl)acrylamide] | > 100 nM
C=CC(=O)Nc1cccc(Nc2nc(Nc3cnn(CC4CC4)c3)ncc2Cl)c1 [Compound I-7, N-(3-((5-chloro-2-((1-(cyclopropylmethyl)-1H-pyrazol-4-yl)amino)pyrimidin-4-yl)amino)phenyl)acrylamide] | 10 to 100 nM
C=CC(=O)Nc1cccc(N(C)c2nc(Nc3cnn(C4CCN(C)CC4)c3)ncc2Cl)c1 [Compound I-72, N-(3-((5-chloro-2-((1-(1-methylpiperidin-4-yl)-1H-pyrazol-4-yl)amino)pyrimidin-4-yl)(methyl)amino)phenyl)acrylamide] | 10 to 100 nM
C=CC(=O)Nc1ccc(F)c(Nc2nc(Nc3ncc(C#N)s3)ncc2Cl)c1 [Compound I-121, N-(3-((5-chloro-2-((5-cyanothiazol-2-yl)amino)pyrimidin-4-yl)amino)-4-fluorophenyl)acrylamide] | > 100 nM
C=CC(=O)Nc1ccc(F)c(Nc2nc(Nc3cc(C)ns3)ncc2Cl)c1 [Compound I-117, N-(3-((5-chloro-2-((3-methylisothiazol-5-yl)amino)pyrimidin-4-yl)amino)-4-fluorophenyl)acrylamide] | < 10 nM
C=CC(=O)N1CCCC(Nc2nc(Nc3cnn(C)c3)ncc2Cl)C1 (single isomer, unassigned) [II-2 (Enantiomer 2), 1-(3-((5-chloro-2-((1-methyl-1H-pyrazol-4-yl)amino)pyrimidin-4-yl)amino)piperidin-1-yl)prop-2-en-1-one] | > 100 nM
C=CC(=O)N1CCCC(Nc2nc(Nc3cnn(C)c3)ncc2Cl)C1 (single isomer, unassigned) [II-1 (Enantiomer 1), 1-(3-((5-chloro-2-((1-methyl-1H-pyrazol-4-yl)amino)pyrimidin-4-yl)amino)piperidin-1-yl)prop-2-en-1-one] | > 100 nM
C=CC(=O)NC1CCCC(Nc2nc(Nc3cc(COC)n(C)n3)ncc2Cl)C1 (stereo not shown) [Compound I-98, N-(3-((5-chloro-2-((5-(methoxymethyl)-1-methyl-1H-pyrazol-3-yl)amino)pyrimidin-4-yl)amino)cyclohexyl)acrylamide] | > 100 nM
C=CC(=O)N[C@H]1CCC[C@H](Nc2nc(Nc3cnn(C)c3)ncc2Cl)C1 (single isomer, unassigned) [I-107 (Enantiomer 2)] | > 100 nM
C/C=C/C(=O)Nc1cccc(Nc2nc(Nc3cnn(C4CCN(C)CC4)c3)ncc2Cl)c1 [Compound I-51, (E)-N-(3-((5-chloro-2-((1-(1-methylpiperidin-4-yl)-1H-pyrazol-4-yl)amino)pyrimidin-4-yl)amino)phenyl)but-2-enamide] | > 100 nM
Cn1cc(Nc2ncc(Cl)c(Nc3cccc(N4C(=O)C=CC4=O)c3)n2)cn1 [Compound I-63, 1-(3-((5-chloro-2-((1-methyl-1H-pyrazol-4-yl)amino)pyrimidin-4-yl)amino)phenyl)-1H-pyrrole-2,5-dione] | > 100 nM
C=CC(=O)Nc1cccc(Nc2nc(Nc3cc(C)no3)ncc2Cl)c1 [Compound I-125, N-(3-((5-chloro-2-((3-methylisoxazol-5-yl)amino)pyrimidin-4-yl)amino)phenyl)acrylamide] | 10 to 100 nM
C=CS(=O)(=O)Nc1cccc(Nc2nc(Nc3cnn(C)c3)ncc2Cl)c1 [Compound I-65, N-(3-((5-chloro-2-((1-methyl-1H-pyrazol-4-yl)amino)pyrimidin-4-yl)amino)phenyl)ethenesulfonamide] | 10 to 100 nM
CN1CCC(n2cc(Nc3ncc(Cl)c(Nc4cccc(NC(=O)C=C5CCCCC5)c4)n3)cn2)CC1 [Compound I-28, N-(3-((5-chloro-2-((1-(1-methylpiperidin-4-yl)-1H-pyrazol-4-yl)amino)pyrimidin-4-yl)amino)phenyl)-2-cyclohexylideneacetamide] | > 100 nM
C=CC(=O)NC1CCCC(Nc2nc(Nc3cc(Cl)n(C)n3)ncc2Cl)C1 (stereo not shown) [Compound I-97, N-(3-((5-chloro-2-((5-chloro-1-methyl-1H-pyrazol-3-yl)amino)pyrimidin-4-yl)amino)cyclohexyl)acrylamide] | > 100 nM
C=CC(=O)Nc1ccnc(Nc2nc(Nc3cnn(C)c3)ncc2Cl)c1 [Compound I-116, N-(2-((5-chloro-2-((1-methyl-1H-pyrazol-4-yl)amino)pyrimidin-4-yl)amino)pyridin-4-yl)acrylamide] | 10 to 100 nM
C=CC(=O)Nc1cccc(Nc2nc(Nc3cnn(C4CCC(O)C4)c3)ncc2F)c1 (stereo not shown) [Compound I-37, N-(3-((5-fluoro-2-((1-(3-hydroxycyclopentyl)-1H-pyrazol-4-yl)amino)pyrimidin-4-yl)amino)phenyl)acrylamide] | > 100 nM
C=CC(=O)Nc1cccc(Oc2nc(Nc3c(C)nn(C)c3C)ncc2Cl)c1 [Compound I-84, N-(3-((5-chloro-2-((1,3,5-trimethyl-1H-pyrazol-4-yl)amino)pyrimidin-4-yl)oxy)phenyl)acrylamide] | > 100 nM
